Series [1] is described as follows: Stability of imexon in organic solvents. The series is classed as physicochemical.
Series [2] is described as follows: Solubility of imexon in water. It counts as physicochemical.
The conditions of series [3]: background statement; therapeutically effective dosages only intravenously; cited from earlier work.
A short description of series [4]: Stability of imexon in aqueous solution. The series is classed as physicochemical. To be noted: aziridine ring opens, isomerises to water-insoluble products.

“Also recorded” adds a separate entry of the source.

Take `N=C1NC(=O)N2CC12` (centres unmarked) [Imexon, 4-imino-1,3-diazabicyclo-(3.1.0)-hexane-2-one]: the “stability of solution in DMSO” value in series [1] (DMSO) is listed as “stable solution of imexon can be produced”. In series [1] (some organic solvents, in contrast to water), the “stability in organic solvents” value is recorded as “remains stable over a prolonged period”. Also, the solubility in water entry in series [2] is “highly soluble in water”. The bioavailability result in series [3] is listed as “low bioavailability”. For the same molecule, the “stability in water / aqueous solutions” value in series [4] was “not stable; also recorded: decomposes in aqueous solutions after a short period”.

(Values after patent US20080096947A1, “Parenteral Forms Of Administration Of Imexon And Method For The Production Thereof” (Heidelberg Pharma AG, priority 2004, published 2008).)
